Measured values from ChEMBL document CHEMBL5257089, “Gamabufotalin Induces Apoptosis and Cytoprotective Autophagy through the mTOR Signaling Pathway in Hepatocellular Carcinoma” (J Nat Prod, 2023).
Activity calls are given as the source filed them. The rule behind the calls is not given here.

Experiments:
Huh-7 [1] = test: Induction of autophagic flux in human Huh-7 cells harbouring mCherry-egfp-LC3 assessed as increase in yellow puncta ratio at 10 nM by fluorescence imaging based assay; type: functional, cell-based
Huh-7 [2] = test: Induction of apoptosis in human Huh-7 cells assessed as viable cells at 10 nM incubated for 48 hrs by Annexin V-FITC/PI staining based flow cytometry method (reference value: 91.5%); type: functional; conditions: read-out: Activity
Hep 3B2 [3] = test: Induction of apoptosis in human Hep3B cells assessed as late apoptotic cells at 10 nM incubated for 48 hrs in presence of gamabufotalin by Annexin V-FITC/PI staining based flow cytometry method (reference value: 3.5%); type: functional
Hep 3B2 [4] = test: Induction of apoptosis in human Hep3B cells assessed as necrotic cells at 10 nM incubated for 48 hrs by Annexin V-FITC/PI staining based flow cytometry method (reference value: 1.2%); type: functional
Huh-7 [5] = test: Induction of autophagy in human Huh-7 cells assessed as rescue of mTOR phosphorylation level at upto 10 nM incubated for 48 hrs in presence of gamabufotalin by immunoblot method; type: functional, cell-based
Hep 3B2 [6] = test: Induction of autophagic flux in human Hep3B cells harbouring mCherry-egfp-LC3 assessed as reduction in number of red puncta ratio at 10 nM incubated for 15 mins in presence of gamabufotalin by laser scanning confocal microscopic analysis; type: functional, cell-based
Hep 3B2 [7] = test: Induction of autophagy in human Hep3B cells assessed as rescue of mTOR phosphorylation level at upto 10 nM incubated for 48 hrs in presence of gamabufotalin by immunoblot method; type: functional, cell-based
Hep 3B2 [8] = test: Inhibition of colony formation in human Hep3B cells at upto 25 uM incubated for 48 hrs by crystal violet staining based analysis; type: functional, cell-based
Hep 3B2 [9] = test: Antitumor activity against human Hep3B cells xenografted in nude mouse model assessed as reduction in Ki-67 index at 5 mg/kg,ip administered every second day for 3 weeks by immunohistochemical analysis; type: functional, organism-based
Hep 3B2 [10] = test: Induction of apoptosis in human Hep3B cells assessed as viable cells at 25 nM incubated for 48 hrs by Annexin V-FITC/PI staining based flow cytometry method (Rvb =95.7%); type: functional; conditions: read-out: Activity
Hep 3B2 [11] = test: Induction of apoptosis in human Hep3B cells assessed as viable cells at 25 nM incubated for 48 hrs in presence of 4,6-dimorpholino-N-(4-nitrophenyl)-1,3,5-triazin-2-amine by Annexin V-FITC/PI staining based flow cytometry method (Rvb =95.7%); type: functional; conditions: read-out: Activity
Hep 3B2 [12] = test: Induction of apoptosis in human Hep3B cells assessed as upregulation of PARP level […] incubated for 48 hrs in presence of 4,6-dimorpholino-N-(4-nitrophenyl)-1,3,5-triazin-2-amine by immunoblot analysis; type: functional, cell-based
[13] = Toxicity in mouse assessed as effect on kidney at 5 mg/kg,ip administered every second day for 3 weeks by H and E staining based microscopic method; type: organism-based; conditions: in vivo, 504 h
Huh-7 [14] = test: Induction of apoptosis in human Huh-7 cells assessed as upregulation of caspase-3 level […] incubated for 48 hrs in presence of 4,6-dimorpholino-N-(4-nitrophenyl)-1,3,5-triazin-2-amine by immunoblot analysis; type: functional, cell-based
[15] = Toxicity in mouse assessed as effect on serum CERA level at 5 mg/kg,ip administered every second day for 3 weeks by H and E staining based microscopic method; type: organism-based; conditions: in vivo, 504 h
Hep 3B2 [16] = test: Antiproliferative activity against human Hep3B cells assessed as cell viability incubated for 24 hrs by CCK-8; type: functional, cell-based
Hep 3B2 [17] = test: Induction of apoptosis in human Hep3B cells assessed as viable cells at 25 nM measured after 48 hrs by annexin V-FITC/Propidium iodide staining based flow cytometric analysis (reference value: 95.6%); type: functional; conditions: read-out: Activity
Hep 3B2 [18] = test: Induction of apoptosis in human Hep3B cells assessed as early apoptotic cells at 20 nM incubated for 48 hrs by Annexin V-FITC/PI staining based flow cytometry method (reference value: 3.9%); type: functional
Hep 3B2 [19] = test: Induction of autophagic flux in human Hep3B cells assessed as rescue of LC3-II accumulation at 25 uM incubated for 48 hrs in presence of chloroquine by Western blot analysis; type: functional, cell-based
Hep 3B2 [20] = test: Induction of autophagic flux in human Hep3B cells assessed as rescue of LC3-I accumulation at 25 uM incubated for 48 hrs in presence of chloroquine by Western blot analysis; type: functional, cell-based
Hep 3B2 [21] = test: Induction of apoptosis in human Hep3B cells assessed as late apoptotic cells at 15 nM incubated for 48 hrs by Annexin V-FITC/PI staining based flow cytometry method (reference value: 2.6%); type: functional
Hep 3B2 [22] = test: Induction of autophagy in human Hep3B cells harbouring mCherry-egfp-LC3 assessed as reduction in yellow puncta ratio at 25 nM incubated for 15 mins in presence of 4,6-dimorpholino-N-(4-nitrophenyl)-1,3,5-triazin-2-amine by laser scanning confocal microscopic analysis; type: functional, cell-based
Hep 3B2 [23] = test: Induction of apoptosis in human Hep3B cells assessed as increase in caspase-3 level at 25 nM incubated for 48 hrs in presence of chloroquine by immunoblot analysis; type: functional, cell-based
[24] = Toxicity in mouse assessed as effect on spleen at 5 mg/kg,ip administered every second day for 3 weeks by H and E staining based microscopic method; type: organism-based; conditions: in vivo, 504 h
Huh-7 [25] = test: Induction of apoptosis in human Huh-7 cells assessed as upregulation of PARP level […] incubated for 48 hrs in presence of 4,6-dimorpholino-N-(4-nitrophenyl)-1,3,5-triazin-2-amine by immunoblot analysis; type: functional, cell-based
Hep 3B2 [26] = test: Antitumor activity against human Hep3B cells xenografted in nude mouse model assessed as upregulation of bax expression at 5 mg/kg,ip administered every second day for 3 weeks by Western blot analysis; type: functional, organism-based
Hep 3B2 [27] = test: Induction of apoptosis in human Hep3B cells assessed as necrotic cells at 25 nM incubated for 48 hrs by Annexin V-FITC/PI staining based flow cytometry method (reference value: 1.2%); type: functional
Huh-7 [28] = test: Induction of autophagy in human Huh-7 cells harbouring mCherry-egfp-LC3 assessed as reduction in red puncta ratio at 25 nM incubated for 15 mins in presence of 4,6-dimorpholino-N-(4-nitrophenyl)-1,3,5-triazin-2-amine by laser scanning confocal microscopic analysis; type: functional, cell-based
Huh-7 [29] = test: Induction of apoptosis in human Huh-7 cells assessed as necrotic cells at 25 nM incubated for 48 hrs by Annexin V-FITC/PI staining based flow cytometry method (reference value: 1.0%); type: functional
Hep 3B2 [30] = test: Antitumor activity against human Hep3B cells xenografted in nude mouse model assessed as downregulation of Bcl-2 expression at 5 mg/kg,ip administered every second day for 3 weeks by Western blot analysis; type: functional, organism-based
Hep 3B2 [31] = test: Induction of apoptosis in human Hep3B cells assessed as increase in cleaved PARP level at 25 nM incubated for 48 hrs in presence of chloroquine by immunoblot analysis; type: functional, cell-based
Hep 3B2 [32] = test: Induction of autophagy in human Hep3B cells assessed as restoration of mTOR phosphorylation expression at 25 uM incubated for 48 hrs in presence of 4,6-dimorpholino-N-(4-nitrophenyl)-1,3,5-triazin-2-amine by immunoblot analysis; type: functional, cell-based
Huh-7 [33] = test: Induction of apoptosis in human Huh-7 cells assessed as late apoptotic cells at 25 nM measured after 48 hrs by annexin V-FITC/Propidium iodide staining based flow cytometric analysis (reference value: 6.1%); type: functional

CCN(CC)CCCC(C)Nc1ccnc2cc(Cl)ccc12 (stereo not drawn) [CHLOROQUINE]
Activity (Huh-7 [1]): Active | viability at 0.01 µM (Huh-7 [2]): 90.3% | Activity (Hep 3B2 [3]): 17.4% | Activity (Hep 3B2 [4]): 0.4% | Activity (Huh-7 [5]): Active | Activity (Hep 3B2 [6]): Active | Activity (Hep 3B2 [7]): Active

C[C@]12CC[C@H](O)C[C@H]1CC[C@@H]1[C@@H]2[C@H](O)C[C@]2(C)[C@@H](c3ccc(=O)oc3)CC[C@]12O [GAMABUFOTALIN]
inhibition (Hep 3B2 [8]): Active | Activity (Hep 3B2 [9]): Active | viability at 0.025 µM (Hep 3B2 [10]): 77.2% | viability at 0.025 µM (Hep 3B2 [11]): 67.2% | Activity (Hep 3B2 [12]): Active | Activity [13]: Non-Toxic | Activity (Huh-7 [14]): Active | Activity [15]: Non-Toxic | IC50 (Hep 3B2 [16]): 27 nM | viability at 0.025 µM (Hep 3B2 [17]): 79.6% | Activity (Hep 3B2 [18]): 7.8% | Activity (Hep 3B2 [19]): Active | Activity (Hep 3B2 [20]): Active | Activity (Hep 3B2 [21]): 4.5% | Activity (Hep 3B2 [22]): Active | Activity (Hep 3B2 [23]): Active | Activity [24]: Non-Toxic | Activity (Huh-7 [25]): Active | Activity (Hep 3B2 [26]): Active | Activity (Hep 3B2 [27]): 0.6% | Activity (Huh-7 [28]): Active | Activity (Huh-7 [29]): 1.1% | Activity (Hep 3B2 [30]): Active | Activity (Hep 3B2 [31]): Active | Activity (Hep 3B2 [32]): Active | Activity (Huh-7 [33]): 20.3%
